Patent US9676997B2, “Compositions and methods for stabilizing luminogenic substrates” (Promega Corporation, priority 2014, dated 2017)
Each block holds one molecule with its values, some of them ahead of it.

How the values were obtained:
[1] = Stability of 1.25 mM coelenterazine-h in 50% ethanol and 50% propylene glycol with or without 225 mM ATT, HPLC and Arrhenius plots; assay type: physicochemical
Experimental: (§1) The stability of coelenterazine-h in the presence and absence of ATT was measured over time at different temperatures. Specifically, 1.25 mM coelenterazine-h was present in a solution of 50% ethanol and 50% propylene glycol (i.e., the solution without ATT) or a solution of 50% ethanol and 50% propylene glycol with 225 mM ATT (i.e., the solution with ATT). These two solutions were incubated at −20° C., room temperature (RT), 40° C., or 60° C. and analyzed at for 0 days, 1 day, 3 days, 7 days, 15 days, and 30 days.
(§2) Following incubation, high performance liquid chromatography (HPLC) was utilized to identify the components of the respective solutions at each time point. Specifically, an Agilent 1100 HPLC instrument was used and equipped with a quaternary pump, thermostatted autosampler and column compartment, and a G1311B diode-array detector. The column used was a Synergi-MAX-RP (Phenomenex, Torrance, Calif.) 100 AÅ 50×4.6 2.5 μm. The run on the HPLC was a gradient run with 0.1% TFA in water and acetonitrile. Absorbance was measured at 262 nanometers (nm). Standards of coelenterazine-h and its known degradants were run to confirm both the retention time and absorbance trace. 5 μl of each solution was injected and the retention time of coelenterazine-h was 4.7 minutes at room temperature.
(§3) The results of the HPLC analysis are shown below in Tables 4 and 5 and FIGS. 2A and 2B, in which the values are reported as relative peak area percentage at 262 nm (i.e., the lamba max of the substrate). […] In each of FIGS. 2A and 2B, diamond is 1.25 mM coelenterazine-h incubated over time with or without 225 mM ATT, respectively, at −20° C., triangle is 1.25 mM coelenterazine-h incubated over time with or without 225 mM ATT, respectively, at room temperature (RT), star is 1.25 mM coelenterazine-h incubated over time with or without 225 mM ATT, respectively, at 40° C., and cross is 1.25 mM coelenterazine-h incubated over time with or without 225 mM ATT, respectively, at 60° C.
From the HPLC analysis, the half-life of coelenterazine-h in the presence of ATT at 40° C. and 60° C. was calculated to be 20 days and 5 days, respectively, while the half-life of coelenterazine-h in the absence of ATT at 20° C., 40° C. and 60° C. was calculated to be 24 days, 7.5 days and 2 days, respectively (see Table 6 below).
Additionally, Arrhenius plots were generated for coelenterazine-h in the presence and absence of ATT to calculate the half-life of coelenterazine-h at various temperatures. The Arrhenius equation is as follows: […]
In FIG. 9, the slope was −8131.2, the intercept was 22.6157, and R^2 was 0.9994.
In FIG. 10, the slope was −7310.53, the intercept was 21.4386, and R^2 was 0.9964.

[2] = Stability of 1.25 mM coelenterazine-h-h in 50% ethanol and 50% propylene glycol with or without 225 mM ATT, HPLC and Arrhenius plots; assay type: physicochemical
Experimental: as §1, with “coelenterazine-h-h” for “coelenterazine-h”, “at” for “at for”
as §2, with “coelenterazine-h-h” for “coelenterazine-h”, “coelenterazine-h-h” for “coelenterazine-h was 4.7 minutes”, “temperature was 5.5 minutes.” for “temperature.”
as §3, with “Tables 7” for “Tables 4”, “and 8” for “and 5”, “FIGS. 3A” for “FIGS. 2A”, “and 3B,” for “and 2B,”, “mM coelenterazine-h-h” for “mM coelenterazine-h”
From the HPLC analysis, the half-life of coelenterazine-h-h in the presence of ATT at 60° C. was calculated to be 10 days while the half-life of coelenterazine-h-h in the absence of ATT at 40° C. and 60° C. was calculated to be 27 days and 8 days, respectively (see Table 9 below).
Additionally, Arrhenius plots were generated for coelenterazine-h-h in the presence and absence of ATT to calculate the half-life of coelenterazine-h-h at various temperatures. The Arrhenius equation is as follows: […]
In FIG. 11, the slope was −10740.9, the intercept was 30.0575, and R^2 was 0.9967.
In FIG. 12, the […], and R^2 was 0.9648.

[3] = decomposition of coelenterazine-h
[4] = solution in 50% ethanol and 50% propylene glycol, 40° C., read-out: T1/2 Calculated from Arrhenius (converted)
[5] = solution of 50% ethanol and 50% propylene glycol, 40° C., read-out: T1/2 Estimated from graph (converted)
[6] = solution of 50% ethanol and 50% propylene glycol, 60° C., read-out: T1/2 Estimated from graph (converted)
[7] = decomposition of coelenterazine-h-h

relative peak area percentage at 262 nm ([1]; 40° C., 0 days): 95.5% | relative peak area percentage at 262 nm ([1]; 40° C., 1 day): 84.3% | relative peak area percentage at 262 nm ([1]; 40° C., 3 days): 71.5% | relative peak area percentage at 262 nm ([1]; 40° C., 7 days): 54.2% | relative peak area percentage at 262 nm ([1]; 40° C., 15 days): 26.7% | relative peak area percentage at 262 nm ([1]; 40° C., 30 days): 1.6% | relative peak area percentage at 262 nm ([1]; 60° C., 0 days): 95.5% | relative peak area percentage at 262 nm ([1]; 60° C., 1 day): 63.6% | relative peak area percentage at 262 nm ([1]; 60° C., 3 days): 32.3% | relative peak area percentage at 262 nm ([1]; 60° C., 7 days): 1.2% | relative peak area percentage at 262 nm ([1]; RT, 0 days): 95.5% | relative peak area percentage at 262 nm ([1]; RT, 1 day): 92.9% | relative peak area percentage at 262 nm ([1]; RT, 3 days): 88.1% | relative peak area percentage at 262 nm ([1]; RT, 7 days): 80.7% | relative peak area percentage at 262 nm ([1]; RT, 15 days): 66.7% | relative peak area percentage at 262 nm ([1]; RT, 30 days): 36.6% | half-life at 1.25 mM [1, 4]: 4.7 days | half-life at 1.25 mM ([1]; solution of 50% ethanol and 50% propylene glycol, 20° C., read-out: T1/2 Calculated from Arrhenius (converted)): 23.2 days | half-life at 1.25 mM ([1]; solution of 50% ethanol and 50% propylene glycol, 20° C., read-out: T1/2 Estimated from graph (converted)): 24 days | half-life at 1.25 mM [1, 5]: 7.5 days | half-life at 1.25 mM ([1]; solution of 50% ethanol and 50% propylene glycol, 60° C., read-out: T1/2 Calculated from Arrhenius (converted)): 1.2 days | half-life at 1.25 mM [1, 6]: 2 days | half-life at 1.25 mM ([1]; solution of 50% ethanol and 50% propylene glycol, −20° C., read-out: T1/2 Calculated from Arrhenius (converted)): 1210 days | relative peak area percentage at 262 nm ([1]; −20° C., 0 days): 95.5% | relative peak area percentage at 262 nm ([1]; −20° C., 1 day): 95.4% | relative peak area percentage at 262 nm ([1]; −20° C., 3 days): 95.0% | relative peak area percentage at 262 nm ([1]; −20° C., 7 days): 95.0% | relative peak area percentage at 262 nm ([1]; −20° C., 15 days): 94.6% | relative peak area percentage at 262 nm ([1]; −20° C., 30 days): 88.8%
Structure (SMILES): O=c1c(Cc2ccccc2)nc2c(Cc3ccccc3)[nH]c(-c3ccc(O)cc3)cn1-2 [Coelenterazine-h (15-957-39), coelenterazine-h]
Arrhenius plot intercept [1, 3]: 21.4386 | Arrhenius plot slope [1, 3]: −7310.53

relative peak area percentage at 262 nm ([2]; 40° C., 0 days): 98.7% | relative peak area percentage at 262 nm ([2]; 40° C., 1 day): 98.0% | relative peak area percentage at 262 nm ([2]; 40° C., 3 days): 95.1% | relative peak area percentage at 262 nm ([2]; 40° C., 7 days): 89.1% | relative peak area percentage at 262 nm ([2]; 40° C., 15 days): 74.9% | relative peak area percentage at 262 nm ([2]; 40° C., 30 days): 46.0% | relative peak area percentage at 262 nm ([2]; 60° C., 0 days): 98.7% | relative peak area percentage at 262 nm ([2]; 60° C., 1 day): 94.3% | relative peak area percentage at 262 nm ([2]; 60° C., 3 days): 80.0% | relative peak area percentage at 262 nm ([2]; 60° C., 7 days): 59.1% | relative peak area percentage at 262 nm ([2]; 60° C., 15 days): 0.2% | relative peak area percentage at 262 nm ([2]; RT, 0 days): 98.7% | relative peak area percentage at 262 nm ([2]; RT, 1 day): 98.2% | relative peak area percentage at 262 nm ([2]; RT, 3 days): 97.5% | relative peak area percentage at 262 nm ([2]; RT, 7 days): 94.4% | relative peak area percentage at 262 nm ([2]; RT, 15 days): 86.6% | relative peak area percentage at 262 nm ([2]; RT, 30 days): 85.7% | half-life at 1.25 mM ([2]; solution in 50% ethanol and 50% propylene glycol, 20° C., read-out: T1/2 Calculated from Arrhenius (converted)): 172 days | half-life at 1.25 mM [2, 4]: 16.9 days | half-life at 1.25 mM ([2]; solution in 50% ethanol and 50% propylene glycol, 60° C., read-out: T1/2 Calculated from Arrhenius (converted)): 2.2 days | half-life at 1.25 mM [2, 5]: 27 days | half-life at 1.25 mM [2, 6]: 8 days | relative peak area percentage at 262 nm ([2]; −20° C., 0 days): 98.7% | relative peak area percentage at 262 nm ([2]; −20° C., 1 day): 98.6% | relative peak area percentage at 262 nm ([2]; −20° C., 3 days): 98.2% | relative peak area percentage at 262 nm ([2]; −20° C., 7 days): 98.4% | relative peak area percentage at 262 nm ([2]; −20° C., 15 days): 97.9% | relative peak area percentage at 262 nm ([2]; −20° C., 30 days): 98.5%
Structure (SMILES): O=c1c(Cc2ccccc2)nc2c(Cc3ccccc3)[nH]c(-c3ccccc3)cn1-2 [Coelenterazine-h-h (1193-25-1), coelenterazine-h-h]
Arrhenius plot intercept [2, 7]: 30.8352 | Arrhenius plot slope [2, 7]: −10650.1
